In ChEMBL document CHEMBL3745716, “Synthesis, pharmacological assessment, molecular modeling and in silico studies of fused tricyclic coumarin derivatives as a new family of multifunctional anti-Alzheimer agents” (Eur J Med Chem, 2016):
Active and inactive are the calls of the source. The calls are words filed in the database; no cut-off is given here.

What was measured:
SK-N-SH [1] = test: Neuroprotective activity against H2O2-induced cell death in human SK-N-SH cells assessed as cell viability preincubated for 3 hrs followed by H202 challenge after 24 hrs by MTT assay; type: functional, cell-based
SK-N-SH [2] = test: Neurotoxicity against human SK-N-SH cells assessed as cell viability at 40 uM after 24 hrs by MTT assay; type: toxicity, cell-based
SK-N-SH [3] = test: Neurotoxicity against human SK-N-SH cells assessed as cell viability at 80 uM after 24 hrs by MTT assay; type: toxicity, cell-based
SK-N-SH [4] = test: Neurotoxicity against human SK-N-SH cells assessed as cell viability at 120 uM after 24 hrs by MTT assay; type: toxicity, cell-based
SK-N-SH [5] = test: Neurotoxicity against human SK-N-SH cells assessed as cell viability at 160 uM after 24 hrs by MTT assay; type: toxicity, cell-based
SK-N-SH [6] = test: Neurotoxicity against human SK-N-SH cells assessed as cell viability at 200 uM after 24 hrs by MTT assay; type: toxicity, cell-based
Acetylcholinesterase [7] = target: T1, Acetylcholinesterase (Electrophorus electricus, UniProt O42275); test: Mixed-type inhibition of electric eel AChE using acetylthiocholine iodide as substrate assessed as enzyme-substrate complex preincubated for 5 mins followed by substrate addition measured over 6 mins by Lineweaver Burk plot analysis
Acetylcholinesterase [8] = target: T1, Acetylcholinesterase; test: Mixed-type inhibition of electric eel AChE using acetylthiocholine iodide as substrate assessed as free enzyme preincubated for 5 mins followed by substrate addition measured over 6 mins by Lineweaver Burk plot analysis
Mus musculus = test: In vivo inhibition of AChE in ip dosed BALB/c ByJ mouse brain assessed as hydrolysis of acetylthiocholine iodide after 48 hrs by Ellman's method; type: functional, organism-based
[9] = target: Acetylcholinesterase (Electrophorus electricus) (UniProt O42275); test: Potency index, ratio of galantamine IC50 to compound IC50 for electric eel AChE
[10] = Potency index, ratio of trolox IC50 to compound IC50 for ABTS radical scavenging activity
Acetylcholinesterase [11] = target: T1, Acetylcholinesterase
Description: Inhibition of electric eel AChE using acetylthiocholine iodide as substrate preincubated for 5 mins followed by substrate addition measured after 5 mins by Ellman's method

Cholinesterase = Cholinesterase (Equus caballus, UniProt P81908)
Chain of Cholinesterase (P81908 whole entry): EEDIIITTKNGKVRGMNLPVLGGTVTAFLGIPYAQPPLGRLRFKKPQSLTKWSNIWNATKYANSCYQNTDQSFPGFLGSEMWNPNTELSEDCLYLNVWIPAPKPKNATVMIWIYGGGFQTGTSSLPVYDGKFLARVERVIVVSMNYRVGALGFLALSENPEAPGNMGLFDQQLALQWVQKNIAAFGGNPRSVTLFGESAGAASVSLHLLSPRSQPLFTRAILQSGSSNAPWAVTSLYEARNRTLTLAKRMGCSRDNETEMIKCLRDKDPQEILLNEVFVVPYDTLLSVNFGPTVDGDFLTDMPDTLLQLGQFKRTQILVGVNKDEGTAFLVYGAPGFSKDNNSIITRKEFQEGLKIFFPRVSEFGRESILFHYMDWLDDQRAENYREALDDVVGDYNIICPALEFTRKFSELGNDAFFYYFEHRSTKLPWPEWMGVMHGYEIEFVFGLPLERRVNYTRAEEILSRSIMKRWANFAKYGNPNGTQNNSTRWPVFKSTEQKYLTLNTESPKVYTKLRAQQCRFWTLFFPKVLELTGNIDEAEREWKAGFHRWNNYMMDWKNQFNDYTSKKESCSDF
Description: Inhibition of horse serum butyrylcholinesterase using butyrylthiocholine iodide as substrate preincubated for 5 mins followed by substrate addition measured after 5 mins by Ellman's method

Chain of Acetylcholinesterase (Electrophorus electricus) (O42275 24-633 limits assumed): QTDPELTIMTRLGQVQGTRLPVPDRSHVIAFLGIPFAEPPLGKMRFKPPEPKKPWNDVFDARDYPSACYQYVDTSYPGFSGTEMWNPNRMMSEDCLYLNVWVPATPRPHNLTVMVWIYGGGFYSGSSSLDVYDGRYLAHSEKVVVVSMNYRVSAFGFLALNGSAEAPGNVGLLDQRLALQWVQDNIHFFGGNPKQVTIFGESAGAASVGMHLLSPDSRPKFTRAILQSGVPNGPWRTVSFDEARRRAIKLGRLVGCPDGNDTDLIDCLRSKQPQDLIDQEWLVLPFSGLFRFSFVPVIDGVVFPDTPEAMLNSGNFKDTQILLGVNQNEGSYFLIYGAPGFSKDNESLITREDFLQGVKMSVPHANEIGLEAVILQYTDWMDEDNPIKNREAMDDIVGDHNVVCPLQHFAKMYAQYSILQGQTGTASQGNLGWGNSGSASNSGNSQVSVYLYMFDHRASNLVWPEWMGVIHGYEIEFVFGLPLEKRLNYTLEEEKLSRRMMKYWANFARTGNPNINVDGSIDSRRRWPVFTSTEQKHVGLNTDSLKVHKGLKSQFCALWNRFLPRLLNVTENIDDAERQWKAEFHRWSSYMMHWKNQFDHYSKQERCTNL
T1 sequence (O42275 whole entry): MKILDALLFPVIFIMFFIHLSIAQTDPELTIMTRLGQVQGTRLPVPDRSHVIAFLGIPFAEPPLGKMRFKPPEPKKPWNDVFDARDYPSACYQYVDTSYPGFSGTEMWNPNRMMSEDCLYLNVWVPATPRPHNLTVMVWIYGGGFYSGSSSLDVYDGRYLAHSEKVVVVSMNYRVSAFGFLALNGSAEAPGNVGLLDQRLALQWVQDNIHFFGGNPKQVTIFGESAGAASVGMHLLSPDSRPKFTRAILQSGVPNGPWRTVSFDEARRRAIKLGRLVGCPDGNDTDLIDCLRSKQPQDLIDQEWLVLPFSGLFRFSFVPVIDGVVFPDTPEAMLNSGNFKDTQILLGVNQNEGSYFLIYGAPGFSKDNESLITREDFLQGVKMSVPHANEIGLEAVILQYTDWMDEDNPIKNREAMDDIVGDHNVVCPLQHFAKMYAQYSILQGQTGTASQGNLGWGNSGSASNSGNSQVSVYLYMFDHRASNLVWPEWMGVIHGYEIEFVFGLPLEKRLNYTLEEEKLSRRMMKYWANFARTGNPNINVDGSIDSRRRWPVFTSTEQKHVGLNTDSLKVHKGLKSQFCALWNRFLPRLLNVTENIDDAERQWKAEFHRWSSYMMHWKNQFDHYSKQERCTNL

| SMILES | Activity (SK-N-SH [1]) | Activity (SK-N-SH [2]) | Activity (SK-N-SH [3]) | Activity (SK-N-SH [4]) | Activity (SK-N-SH [5]) | Activity (SK-N-SH [6]) | Ki (Acetylcholinesterase [7]) | Ki (Acetylcholinesterase [8]) | inhibition (Mus musculus) | Ratio IC50 [9] | Ratio IC50 [10] | IC50 (Acetylcholinesterase [11]) | IC50 (Cholinesterase) | IC50 |
| --- | --- | --- | --- | --- | --- | --- | --- | --- | --- | --- | --- | --- | --- | --- |
| Cc1cc(=O)oc2c1ccc1oc(=N)c(C(=O)NCc3cccc(Br)c3)cc12 | Dose-dependent effect | Toxic | Toxic | Toxic | Toxic | Toxic | 0.0193 µM | 0.0103 µM | Active | 2 | 1.7 | 0.003 µM | > 100 µM | 7.98 µM |
| Cc1cc(=O)oc2c1ccc1oc(=N)c(C(=O)NCc3ccc(C(C)(C)C)cc3)cc12 | Dose-dependent effect | Toxic | Toxic | Toxic | Toxic | Toxic |  |  |  | 2 | 1.7 | 0.01 µM | 57.9 µM | 13.4 µM |
| Cc1cc(=O)oc2c1ccc1oc(=N)c(C(=O)NC3CCCCC3)cc12 |  |  |  |  |  |  |  |  |  | 2 |  | 0.027 µM | 42 µM | > 50 µM |
| Cc1cc(=O)oc2c1ccc1oc(=N)c(C(=O)NC(c3ccccc3)c3ccccc3)cc12 |  |  |  |  |  |  |  |  |  | 2 |  | 0.09 µM |  | > 50 µM |
| Cc1cc(=O)oc2c1ccc1oc(=N)c(C(=O)NC3CC3)cc12 |  |  |  |  |  |  |  |  |  |  |  | 0.91 µM | 38.9 µM | > 50 µM |
| Cc1cc(=O)oc2c1ccc1oc(=N)c(C(=O)N3CCOCC3)cc12 |  |  |  |  |  |  |  |  |  | 2 | 1.7 | 0.115 µM |  | 11.3 µM |
| CCCCCCCCCCCCNC(=O)c1cc2c(ccc3c(C)cc(=O)oc32)oc1=N |  |  |  |  |  |  |  |  |  | 2 |  | 0.022 µM | > 100 µM | > 50 µM |
| Cc1cc(=O)oc2c1ccc1oc(=N)c(C(=O)Nc3ccccc3[N+](=O)[O-])cc12 |  |  |  |  |  |  |  |  |  | 2 |  | 0.226 µM | > 100 µM | > 50 µM |
| Cc1cc(=O)oc2c1ccc1oc(=N)c(C(=O)NCc3ccccc3Cl)cc12 | Dose-dependent effect | Non-toxic | Non-toxic | Non-toxic | Non-toxic | Non-toxic |  |  |  | 2 | 1.7 | 0.012 µM | > 100 µM | 16 µM |
| COc1ccc(CNC(=O)c2cc3c(ccc4c(C)cc(=O)oc43)oc2=N)c(OC)c1 |  |  |  |  |  |  |  |  |  | 2 |  | 0.357 µM | > 100 µM | > 50 µM |
| Cc1c(C)c2c(c(C)c1O)CCC(C)(C(=O)O)O2 (stereo unspecified) [TROLOX] |  |  |  |  |  |  |  |  |  |  |  |  |  | 27.4 µM |
| COc1ccc(C(C)NC(=O)c2cc3c(ccc4c(C)cc(=O)oc43)oc2=N)cc1 (stereo unspecified) |  |  |  |  |  |  |  |  |  |  | 1.7 | 1.9 µM |  | 9.04 µM |
| Cc1cc(=O)oc2c1ccc1oc(=N)c(C(=O)NC(C)c3ccccc3)cc12 (stereo unspecified) |  |  |  |  |  |  |  |  |  | 2 | 1.7 | 0.247 µM | 35.8 µM | 14.1 µM |
| Cc1cc(=O)oc2c1ccc1oc(=N)c(C(=O)NCc3ccccc3Br)cc12 | Dose-dependent effect | Non-toxic | Non-toxic | Non-toxic | Non-toxic | Non-toxic |  |  |  | 2 | 1.7 | 0.016 µM | > 100 µM | 11.9 µM |
| COc1ccccc1OCCNC(=O)c1cc2c(ccc3c(C)cc(=O)oc32)oc1=N |  |  |  |  |  |  |  |  |  |  |  | 2.6 µM | 24.8 µM | 13 µM |
| Cc1cc(=O)oc2c1ccc1oc(=N)c(C(=O)NCc3ccccc3)cc12 |  |  |  |  |  |  |  |  |  | 2 |  | 2.13 µM | > 100 µM | > 50 µM |
| Cc1cc(=O)oc2c1ccc1oc(=N)c(C(=O)NCc3cccc(Cl)c3)cc12 | Dose-dependent effect | Non-toxic | Non-toxic | Non-toxic | Non-toxic | Non-toxic |  |  |  | 2 | 1.7 | 0.019 µM | > 100 µM | 10.3 µM |
| CNC(=O)c1cc2c(ccc3c(C)cc(=O)oc32)oc1=N |  |  |  |  |  |  |  |  |  |  |  | 1.4 µM | > 100 µM | 34.2 µM |
| CCNC(=O)c1cc2c(ccc3c(C)cc(=O)oc32)oc1=N |  |  |  |  |  |  |  |  |  | 2 |  | 0.294 µM | 11.3 µM | > 50 µM |
| Cc1cc(=O)oc2c1ccc1oc(=N)c(C(=O)N3CCCC3)cc12 |  |  |  |  |  |  |  |  |  | 2 |  | 0.984 µM | 73.1 µM | > 50 µM |
